Test results from patent US20230046078A1, “METHODS OF USING SUBSTITUTED FLAVONES FOR TREATING BONE DISORDERS” (EMORY UNIVERSITY, priority 2021, published 2023).
“Also recorded” adds a separate entry of the source.

Legend:
[1] = test system: MC3T3-E1 cells; type: cell-based, Murine
Experimental: Total RNA was isolated by TRIzol (Life Technologies, Carlsbad, Calif.). Reverse transcription was performed with SuperScript III reverse transcriptase (Life Technologies). Gene-specific primers and probes were designed and bought from Taqman (Life Technologies). All real-time PCR reactions were performed using the ABI 7500-Fast Real-Time PCR System and the Taqman Universal Master Mix Kit (Life Technologies). The relative quantification of gene expression was calculated using the ΔΔCt method. Predesigned real-time PCR primers from Applied Biosystems (Waltham, Mass.) were used for the analysis of Opg (Tnfrsf11b; Mm0043545_m1), RANK-L (Tnfsf11; Mm00441908_m1), AEP (Lgmn; Mm01325350_m1), GAPDH (Gapdh; Mm99999915_g1).

[2] = test system: MC3T3-E1 cells; assay: ELISA of OPG and RANK-L secreted into the medium of MC3T3 cells; type: cell-based, Murine
Text: FIG. 9, Panel A contains representative images of ALP staining in […] cells treated with BDNF or 7,8-DHF combined with or without K252a for 14 days (n=3 independent experiments) (Scale bar, 5 mm (upper panel), 200 μm (lower panel)). […] FIG. 9, Panel C contains Western blots for MC3T3 cells cultured in complete medium or osteogenic induction medium (OIM) with BDNF or 7,8 DHF combined with or without K252a for 4 days. […] FIG. 9, Panel D contains graphs of the relative protein levels of C/EBPP, p-C/EBPβ, AEP, RANK-L, OPG, Osterix, p-TrkB/TrkB and p-Akt/AKT in MC3T3 cells cultured in the complete medium or OIM with BDNF or 7,8-DHF combined with or without K252a for four days. Data are shown as mean±SEM of three independent experiments, one-way ANOVA. Data are shown in each graph from left to right as 1) Control, 2) OIM+DMSO, 3) OIM+BDNF, 4) OIM+7,8-DHF, 5) OIM+BDNF+K252a, and 6) OIM+7,8-DHF+K252a. FIG. 9, Panel E contains graphs of an AEP enzymatic activity assay. BDNF and 7,8-DHF inhibit AEP activities, and K252a abolish BDNF and 7,8-DHF's effects. Data are shown as mean±SEM of 3 independent experiments, one-way ANOVA. Data are shown in each graph from left to right as 1) Control, 2) OIM+DMSO, 3) OIM+BDNF, 4) OIM+7,8-DHF, 5) OIM+BDNF+K252a, and 6) OIM+7,8-DHF+K252a. FIG. 9, Panel F contains graphs of qPCR results showing that OPG mRNA expression increases in MC3T3 cells after 7,8-DHF treatment for four days. Data are shown as mean±SEM of three independent experiments, one-way ANOVA. Data are shown in each graph from left to right as 1) Control, 2) OIM+DMSO, 3) OIM+BDNF, 4) OIM+7,8-DHF, 5) OIM+BDNF+K252a, and 6) OIM+7,8-DHF+K252a. FIG. 9, Panel G contains graphs showing that 7,8-DHF increases OPG and decreases the RANK-L/OPG ratio. Levels of OPG and RANK-L proteins secreted into the medium were measured by ELISA. Data are shown as mean±SEM of 3 independent experiments, one-way ANOVA. Data are shown in each graph from left to right as 1) Control, 2) OIM+DMSO, 3) OIM+BDNF, 4) OIM+7,8-DHF, 5) OIM+BDNF+K252a, and 6) OIM+7,8-DHF+K252a.

[3] = test system: MC3T3-E1 cells; type: cell-based, Murine; remark: listed apart in the source
[4] = test system: AEP; assay: AEP activity assay on MC3T3-E1 cell lysates; type: cell-based, Murine
Experimental: Cell lysates (10 μg) were incubated in 200 μl assay buffer (20 mM citric acid, 60 mM Na2HPO4, 1 mM EDTA, 0.1% CHAPS, and 1 mM DTT, pH 6.0) containing 20 μM δ-secretase substrate Z-Ala-Ala-Asn-AMC (Bachem, Bubendorf, Switzerland). AMC released by substrate cleavage was quantified by measuring at 460 nm in a fluorescence plate reader at 37° C. for 2 h in kinetic mode.

[5] = test system: WT mice; conditions: mouse, in vivo
[6] = test system: ovariectomized (OVX) WT and BDNF+/− mice; type: in vivo
[7] = test system: ovariectomized (OVX) WT mice; assay: H&E, TRAP staining and histomorphometry of distal femur in OVX WT mice, R13 versus anti-RANK-L antibody; type: in vivo; conditions: WT mice after OVX
Experimental: (§1) Female C57BL6/J wild-type mice and BDNF+/−mice were obtained from Jackson Laboratory (MMRRC stock #000664 and 002267), then held and bred. The AEP knockout mice were generated on a mixed C57BL/6 and 129/Ola background. All in vivo experiments were carried out in female mice. All mice were kept under specific pathogen-free conditions in an environmentally controlled clean room and housed at 22° C. on a 12-h/12-h light/dark cycle. Food and water were provided ad lib. WT, BDNF+/−mice, AEP WT and AEP knockout mice were bilaterally ovariectomized or sham operated at 12 weeks of age. One week after ovariectomy, the WT and BDNF+/−mice received vehicle or R13 dissolved in 5% DMSO/0.5% methylcellulose at dose of 21.8 mg/kg/d, six days per week, for 8 weeks by gavage. In another group, 4 weeks after ovariectomy, WT mice were treated with IgG or anti-RANK-L monoclonal antibody (10 mg/kg, twice per week) by single subcutaneous injection for 4 weeks.
(§2) The measurements, indices and units for histomorphometric analysis were recommended by the Nomenclature Committee of the American Society of Bone and Mineral Research. Mice were injected with calcein (25 μg/g) subcutaneously at day 10 and day 3 before sacrifice. Bone histomorphometric analysis was performed at the University of Alabama at Birmingham Center for Metabolic Bone Disease-Histomorphometry and Molecular Analysis Core Laboratory. The Goldner's trichrome-stained plastic-embedded sections of calcein-double labeled femora of the mice were analyzed by an operator blinded as to the nature of the samples.
Representative data of double labeling of the trabecular bone in WT mice with OVX after R13 or anti-RANK-L antibody treatment are provided in FIG. 14, Panel C.

[8] = test system: ovariectomized (OVX) WT and BDNF+/− mice; type: in vivo; remark: listed apart in the source
[9] = test system: ovariectomized (OVX) WT and BDNF+/− mice; assay: H&E, TRAP staining and quantitative bone histomorphometry of distal femur in OVX WT and BDNF+/− mice treated with R13; type: in vivo
Experimental: as §1, §2
To further explore the roles of BDNF signaling in bone resorption and formation after OVX, hematoxylin and eosin (H&E) staining was conducted to analyze bone morphology and white edipocytes in both WT and BDNF+/−mice after OVX surgery. […] These observations were also validated by the single and double-labeled surface and inter-label thickness analysis (FIG. 7). […] Treatments with R13 inhibited N.Oc/BS in both WT and BDNF+/−mice after OVX.

[10] = test system: ovariectomized (OVX) WT mice; assay: Serum markers in OVX WT mice, R13 versus anti-RANK-L antibody; type: in vivo
Experimental: as §1
Serum Osteocalcin (Novus Biologicals, Littleton, Colo., Cat. NBP2-68151), CTX (Immunodiagnostic systems, East Boldon, UK, Cat. AC-06F1), RANK-L and OPG (Abcam, Cat. ab269553 and ab203365) were measured by specific Elisa assays.
Given that R13 protects the bone by increase OPG, the RANK-L antibody was used as a comparator drug. Four weeks after ovariectomy, WT mice were treated with IgG or anti-RANK-L monoclonal antibody consecutively for 4 weeks.

[11] = OVX WT and BDNF+/− mice upon R13 treatment
[12] = OVX mice, R13 21.8 mg/kg orally, eight weeks, vs vehicle control
[13] = […], R13 21.8 mg/kg orally, eight weeks, compared to OVX group
[14] = among the groups regardless of the treatment

## COC(=O)[C@@]1(O)C[C@H]2O[C@]1(C)n1c3ccccc3c3c4c(c5c6ccccc6n2c5c31)C(=O)NC4 [K252a]
[1]; K252a 100 nM pretreatment
  BDNF/7,8-DHF-elevated RANK-L mRNAs under K252a: not affected
  BDNF/7,8-DHF-promoted OPG mRNA levels under K252a: abolished
[2]; K252a 100 nM pretreatment
  RANK-L/OPG ratio in BDNF and 7,8-DHF groups under K252a: highly augmented
[3]; K252a 100 nM pretreatment
  effects triggered by BDNF or 7,8-DHF (Western blot) under K252a: potently blunted
[4]; K252a 100 nM pretreatment
  BDNF and 7,8-DHF's effects on AEP activities under K252a: abolish

## CNC(=O)Oc1ccc2c(=O)cc(-c3ccccc3)oc2c1OC(=O)NC [R13, 4-oxo-2-phenyl-4H-chromene-7,8-diyl bis(methylcarbamate)]
[5]
  BV/TV: elevated
  Conn.D.: no significant difference
  Ct.Ar: no significant difference
  Ct.Th: no significant difference
  SMI: no significant difference
  Tb.N: no significant difference
  Tb.Sp: no significant difference
  Tb.Th: no significant difference
  serum BDNF: no significant difference
  serum CTX: no significant difference
  serum OPG level: significantly increased
  serum RANK-L: without affecting; also recorded: no significant difference
  serum RANK-L/OPG ratio: no significant difference
  serum osteocalcin: no significant difference
[6]; [11]
  RANK-L/OPG ratio (serum): significant reduction
  serum OPG: substantially increased
[6]; R13-treated OVX mice compared to sham group
  serum CTX levels: higher
[6]; R13-treated OVX mice compared with vehicle-treated sham group
  serum osteocalcin: increased
[6]; among the groups
  serum BDNF levels: remained equivalent
[7]
  OVX-induced osteoclast cells (TRAP staining): diminished
  trabecular bone marrow density (H&E staining): increased
  white adipocyte contents in the bone (H&E staining): decreased
[7]; distal femur trabecular bone
  BFR/BS: significantly increased
  N.Oc/BS: decreased
[8]; OVX mice, both types, R13 21.8 mg/kg orally, eight weeks, vs OVX group
  trabecular spacing (Tb.Sp): decreased
[8]; [12]
  trabecular number (Tb.N): higher
  trabecular thickness (Tb.Th): higher
[8]; [13]
  connectivity density (Conn.D): higher
  structure model index (SMI): lower
[8]; […], R13 21.8 mg/kg orally, six days per week for eight weeks, compared to OVX group
  trabecular bone volume fraction (BV/TV): higher
[8]; after OVX, overall conclusion
  bone density: strongly increase
[8]; among the groups, R13 21.8 mg/kg orally
  relative cortical bone area to tissue area (Ct.Ar/Tt.Ar): remained unchanged
[8]; mouse, in vivo, po, 21.8 mg/kg
  average cortical thickness (Ct.Th): escalated
  cortical bone cortical area (Ct.Ar): escalated
[9]; R13 treatment
  OVX-induced bone loss: attenuated; also recorded: greatly blocks
[9]; WT and BDNF+/− mice
  OVX-induced osteoclast cells (TRAP staining): diminished
[9]; WT and BDNF+/− mice after OVX
  N.Oc/BS: inhibited
[9]; after OVX, WT and BDNF+/− mice
  adipocyte content in the bone (H&E staining): decreased
  trabecular bone tissue (H&E staining): increased
[9]; after OVX, vehicle vs R13
  bone formation rate (BFR): vehicle-treated mice exhibited lower MAR and BFR as compared to R13-treated mice
  mineral apposition rate (MAR): vehicle-treated mice exhibited lower MAR and BFR as compared to R13-treated mice
[9]; [14]
  MS/BS ratio: remained comparable
  percentage of surfaces covered by OCs (Oc.S/BS): remained comparable
[9]; vehicle and R13-treated mice
  N.Ob/BS: no significant differences
  ObS/BS: no significant differences
[10]
  serum OPG: robustly elevated
  serum RANK-L: without altering
  serum RANK-L/OPG ratio: significant reduction

## BDNF: Brain-derived neurotrophic factor, a neurotrophin; TrkB ligand
[1]; OIM, four days
  OPG mRNA levels: strong stimulatory effect
  RANK-L mRNA: elevated
[2]; OIM, vs OIM alone
  OPG protein secreted into the medium: further augmented
  RANK-L protein secreted into the medium: further augmented
  RANK-L/OPG ratio (ELISA): OIM alone were significantly higher than BDNF and 7,8-DHF
[3]; OIM, 4 days
  AEP expression: diminished
  OPG protein (Western blot): augmentation
  RANK-L protein (Western blot): augmentation
[4]; MC3T3 cells in OIM, substrate Z-Ala-Ala-Asn-AMC
  AEP protease activities: greatly blocked; also recorded: inhibit
